Experimental data from US4943561A, “Gastrin releasing peptide antagonist” (Merck & Co., Inc., priority 1988, dated 1990).
Residues, ends and D or L forms follow the SMILES beside them. *: point of attachment. NH(2-Me-nonan-4R-yl) = CCCCC[C@H](CC(C)C)N*; NHCH(iBu)2 = CC(C)CC(CC(C)C)N*; X1 = CCCCC[C@@H](CC(C)C)N*; X2 = CCCC=C[C@H](CC(C)C)N*; Boc = CC(C)(C)OC(=O)*; Piv = CC(C)(C)C(=O)*; Ms = CS(=O)(=O)*

These molecules were tested on Swiss 3T3 cells (assay: Procedure C: Mitogenesis Inhibition (GRP-stimulated 3H-thymidine uptake)). Conditions: GRP plus antagonist, 48 hours.
Format: cell-based, murine
Method: The activity of the peptide derivatives of the present invention as GRP antagonists was determined in competitive binding assays with a radio-active GRP derivative. Swiss 3T3 fibroblasts were used in these tests as the source of GRP receptor. Because these cells respond to GRP binding with a rapid increase in DNA synthesis, compounds that bind to the GRP receptor can also be tested for their ability to stimulate DNA synthesis. New DNA synthesis is one of the early steps in cell division and is widely accepted as a measure of mitogenicity or cell growth. […] Compounds which block DNA synthesis are mitogenic antagonists. […] Swiss 3T3 cells were grown in monolayer culture in 24 -well plates (Costar) in serum free DMEM for 48 hours, at which time the GRP or a GRP homologue. The antagonist and 23 nM ^3 H-thymidine were added. After an additional 48 hours, the cell monolayer was washed twice with PBS, and the cells were then removed with 1 ml 10x trypsin containing 5 mM EDTA. The cells were harvested with a Skatron filter apparatus, and the filters counted in a scintillation counter.

SMILES	IC50
CCCCC[C@H](CC(C)C)NC(=O)[C@H](Cc1c[nH]cn1)NC(=O)CNC(=O)[C@@H](NC(=O)[C@H](C)NC(=O)[C@H](Cc1c[nH]c2ccccc12)NC(=O)[C@H](Cc1c[nH]cn1)NC(=O)C(C)(C)C)C(C)C [4(R)] (Piv-HWAVGH-{NH(2-Me-nonan-4R-yl)})	2 nM

The molecules below were run against T1, GRP receptor (Mus musculus, UniProt P21729) (assay: Procedure A: Binding Inhibition Studies (competition with [3H-Phe15]GRP15-27)). Conditions: Swiss 3T3 cells; 3 nM [3H-Phe15]GRP15-27; 60 minutes at 15° C.
T1 construct: endogenous in cells; host or cells: Swiss 3T3 fibroblasts (intact monolayers)
T1 sequence (P21729 whole entry): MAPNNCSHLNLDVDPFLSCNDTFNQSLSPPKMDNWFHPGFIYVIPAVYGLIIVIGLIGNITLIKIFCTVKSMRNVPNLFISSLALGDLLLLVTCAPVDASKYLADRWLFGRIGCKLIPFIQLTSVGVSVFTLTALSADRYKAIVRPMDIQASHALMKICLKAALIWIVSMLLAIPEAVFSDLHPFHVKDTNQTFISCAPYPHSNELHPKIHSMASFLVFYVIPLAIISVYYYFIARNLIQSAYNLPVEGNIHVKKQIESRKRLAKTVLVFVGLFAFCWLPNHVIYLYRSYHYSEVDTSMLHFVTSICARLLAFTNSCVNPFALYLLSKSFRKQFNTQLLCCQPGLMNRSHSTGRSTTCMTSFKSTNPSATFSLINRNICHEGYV
Set-up: species or system murine
Method: The activity of the peptide derivatives of the present invention as GRP antagonists was determined in competitive binding assays with a radio-active GRP derivative. Swiss 3T3 fibroblasts were used in these tests as the source of GRP receptor. Because these cells respond to GRP binding with a rapid increase in DNA synthesis, compounds that bind to the GRP receptor can also be tested for their ability to stimulate DNA synthesis. New DNA synthesis is one of the early steps in cell division and is widely accepted as a measure of mitogenicity or cell growth. […] Compounds which block DNA synthesis are mitogenic antagonists.
Swiss 3T3 cells, obtained from Dr. K. Brown (Institute of Animal Physiology, Cambridge, U.K.), were grown to confluency in Costar 12 -well plates containing DMEM (Gibco) supplemented with 10% fetal bovine serum, 2 mM glutamine and 1% penicillin-streptomycin. The cells were washed twice with binding buffer [1:1 DMEM:Waymouths MB752/1 medium, plus 1 mg/ml BSA (Fraction V, Calbiochem)]. The antagonist was dissolved in 10 mM HCl, and diluted to the appropriate concentration in binding buffer. The antagonist was then added to the cells, followed by [^3 H Phe^15 ]GRP15-27 at a final concentration of 3 nM. After 60 minutes incubation at 15° C., the supernatant liquid was removed and the cell monolayer rinsed four times with washing buffer (150 mM NaCl, 20 mM Na2 HPO4, 5mM KCl, 1.8 mM KH2 PO4, 1 mg/ml BSA) The cells were then lysed with 1 ml/well of lysis buffer (1% Triton X-100, 0.1% BSA), and the solution was aspirated into scintillation vials for counting. Each data point was collected in triplicate.

IC50	SMILES
2 nM	CCCCC[C@H](CC(C)C)NC(=O)[C@H](Cc1c[nH]cn1)NC(=O)CNC(=O)[C@@H](NC(=O)[C@H](C)NC(=O)[C@H](Cc1c[nH]c2ccccc12)NC(=O)[C@H](Cc1c[nH]cn1)NC(C)=O)C(C)C [1(R)] (Ac-HWAVGH-{NH(2-Me-nonan-4R-yl)})
17 nM	CCCCC[C@@H](CC(C)C)NC(=O)[C@H](Cc1c[nH]cn1)NC(=O)CNC(=O)[C@@H](NC(=O)[C@H](C)NC(=O)[C@H](Cc1c[nH]c2ccccc12)NC(=O)[C@H](Cc1c[nH]cn1)NC(C)=O)C(C)C [1(S)] (Ac-HWAVGH-X1)
11 nM	CCCC=C[C@H](CC(C)C)NC(=O)[C@H](Cc1c[nH]cn1)NC(=O)CNC(=O)[C@@H](NC(=O)[C@H](C)NC(=O)[C@H](Cc1c[nH]c2ccccc12)NC(=O)[C@H](Cc1c[nH]cn1)NC(C)=O)C(C)C [2(S)] (Ac-HWAVGH-X2)
15 nM	CCCCC[C@H](CC(C)C)NC(=O)[C@H](Cc1c[nH]cn1)NC(=O)CNC(=O)[C@@H](NC(=O)[C@H](C)NC(=O)[C@H](Cc1c[nH]c2ccccc12)NC(=O)[C@H](Cc1c[nH]cn1)NS(C)(=O)=O)C(C)C [3(R)] (Ms-HWAVGH-{NH(2-Me-nonan-4R-yl)})
2 nM	CCCCC[C@H](CC(C)C)NC(=O)[C@H](Cc1c[nH]cn1)NC(=O)CNC(=O)[C@@H](NC(=O)[C@H](C)NC(=O)[C@H](Cc1c[nH]c2ccccc12)NC(=O)[C@H](Cc1c[nH]cn1)NC(=O)OC(C)(C)C)C(C)C [5(R)] (Boc-HWAVGH-{NH(2-Me-nonan-4R-yl)})
2 nM	CC(=O)N[C@@H](Cc1c[nH]cn1)C(=O)N[C@@H](Cc1c[nH]c2ccccc12)C(=O)N[C@@H](C)C(=O)N[C@H](C(=O)NCC(=O)N[C@@H](Cc1c[nH]cn1)C(=O)NC(CC(C)C)CC(C)C)C(C)C [Example 6] (Ac-HWAVGH-{NHCH(iBu)2})

SMILES	IC50
CCCCC[C@H](CC(C)C)NC(=O)[C@H](Cc1c[nH]cn1)NC(=O)CNC(=O)[C@@H](NC(=O)[C@H](C)NC(=O)[C@H](Cc1c[nH]c2ccccc12)NC(=O)[C@H](Cc1c[nH]cn1)NC(=O)C(C)(C)C)C(C)C [4(R)] (Piv-HWAVGH-{NH(2-Me-nonan-4R-yl)})	3 nM
